# pEC50, pKi: −log10 of the molar value. Where two headings read alike, the source gives them in different places.
# How the values were obtained:
# [1] = target: T1, hMC4-R (Homo sapiens (Human), UniProt P32245); experiment: Competitive inhibition binding assay using [I125]-NDP-α-MSH, hMC4-R; conditions: membranes of HEK-293 cells expressing recombinant hMC4-R, read-out: MC4-R Ki
# [2] = target: MC1-R; experiment: Competitive inhibition binding assay using [I125]-NDP-α-MSH, MC1-R; conditions: membranes of B-16 mouse melanoma cells (endogenous MC1-R), in some instances HEK-293 hMC1-R
# Experimental: 7.1 Competitive Inhibition Assay using [I^125]-NDP-α-MSH.
# A competitive inhibition binding assay was performed for exemplified peptides according to the invention using membrane homogenates prepared from HEK-293 cells that express recombinant hMC4-R, hMC3-R, or hMC5-R, and from B-16 mouse melanoma cells (containing endogenous MC1-R). In some instances, HEK-293 cells that express recombinant hMC1-R were employed. Assays were performed in 96 well GF/B Millipore multiscreen filtration plates (MAFB NOB10) pre-coated with 0.5% bovine serum albumin (Fraction V). Membrane homogenates were incubated with 0.2 nM (for hMC4-R) 0.4 nM (for MC3-R and MC5-R) or 0.1 nM (for mouse B16 MC1-R or hMC1-R) [I^125]-NDP-α-MSH (Perkin Elmer) and increasing concentrations of test peptides of the present invention in buffer containing 25 mM HEPES buffer (pH 7.5) with 100 mM NaCl, 2 mM CaCl2, 2 mM MgCl2, 0.3 mM 1,10-phenanthroline, and 0.2% bovine serum albumin. After incubation for 60 minutes at 37° C., the assay mixture was filtered and the membranes washed three times with ice-cold buffer. Filters were dried and counted in a gamma counter for bound radioactivity. […] Maximal specific binding (100%) was defined as the difference in radioactivity (cpm) bound to cell membranes in the absence and presence of 1 μM NDP-α-MSH. […] Each assay was conducted in triplicate and the actual mean values are described, with results less than 0% reported as 0%. Ki values for test peptides of the present invention were determined using Graph-Pad Prism® curve-fitting software.
# [3] = target: T1, hMC4-R; experiment: High and low density hMC4-R functional assay (cAMP, HEK293-T-REx-MC4-R cells); assay type: cell-based; conditions: for Emax: NDP-α-MSH = 100%, read-out: Intrinsic Activity (%)
# [4] = 0.1 ng/mL Doxycycline (low density hMC4-R system)
# [5] = 10 ng/mL Doxycycline (high density hMC4-R system)
# T1 sequence (P32245 whole entry): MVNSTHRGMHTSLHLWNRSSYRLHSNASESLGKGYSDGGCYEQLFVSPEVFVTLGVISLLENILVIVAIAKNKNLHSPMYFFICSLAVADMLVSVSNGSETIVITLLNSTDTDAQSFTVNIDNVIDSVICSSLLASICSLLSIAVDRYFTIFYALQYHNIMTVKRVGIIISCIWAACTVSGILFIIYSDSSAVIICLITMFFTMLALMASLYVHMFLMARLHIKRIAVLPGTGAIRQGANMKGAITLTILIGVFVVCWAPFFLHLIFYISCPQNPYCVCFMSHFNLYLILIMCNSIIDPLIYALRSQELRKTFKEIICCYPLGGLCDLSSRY
Compound,pKi [1],pKi [2],"pEC50 [3, 4]","Emax [3, 4] [%]","pEC50 [3, 5]","Emax [3, 5] [%]"
"CC(=O)N[C@@H](CCCNC(=N)N)C(=O)N[C@H]1CCC(=O)NCCC[C@@H](C(N)=O)NC(=O)[C@H](Cc2c[nH]c3ccccc23)NC(=O)[C@H](CCCNC(=N)N)NC(=O)[C@@H](Cc2cccc(F)c2)NC(=O)[C@H](CCN)NC1=O [Example 10, Ac-Arg-cyclo(Glu-Dab-D-Phe(3-F)-Arg-Trp-Orn)-NH2]",8.70,8.70,9.35,77,9.77,94
"CC(=O)N[C@@H](CCCNC(=N)N)C(=O)N[C@H]1CCCNC(=O)CC[C@@H](C(N)=O)NC(=O)[C@H](Cc2c[nH]c3ccccc23)NC(=O)[C@H](CCCNC(=N)N)NC(=O)[C@@H](Cc2ccccc2F)NC(=O)[C@H](CC(N)=O)NC1=O [Example 71, Ac-Arg-cyclo(Orn-Asn-D-Phe(2-F)-Arg-Trp-Glu)-NH2]",8.05,6.47,9.00,86,10.07,91
"CC(=O)N[C@@H](CCCNC(=N)N)C(=O)N[C@H]1CCC(=O)NCCC[C@@H](C(N)=O)NC(=O)[C@H](Cc2c[nH]c3ccccc23)NC(=O)[C@H](CCCNC(=N)N)NC(=O)[C@@H](Cc2ccc(F)cc2)NC(=O)[C@@H]2C[C@@H](O)CN2C1=O [Example 60, Ac-Arg-cyclo(Glu-Hyp-D-Phe(4-F)-Arg-Trp-Orn)-NH2]",9.00,7.05,9.35,62,9.85,95
"CC(=O)N[C@@H](CCCNC(=N)N)C(=O)N[C@H]1CCC(=O)NCCC[C@@H](C(N)=O)NC(=O)[C@H](Cc2c[nH]c3ccccc23)NC(=O)[C@H](CCCNC(=N)N)NC(=O)[C@@H](Cc2ccccc2Cl)NC(=O)[C@H]([C@@H](C)OCc2ccccc2)NC1=O [Example 63, Ac-Arg-cyclo(Glu-Thr(Bzl)-D-Phe(2-Cl)-Arg-Trp-Orn)-NH2]",9.46,7.92,9.43,30,9.80,93
"CC(=O)N[C@@H](CCCNC(=N)N)C(=O)N[C@H]1CCC(=O)NCCC[C@@H](C(N)=O)NC(=O)[C@H](Cc2c[nH]c3ccccc23)NC(=O)[C@H](CCCNC(=N)N)NC(=O)[C@@H](Cc2cccc(C#N)c2)NC(=O)[C@H](CCN)NC1=O [Example 6, Ac-Arg-cyclo(Glu-Dab-D-Phe(3-CN)-Arg-Trp-Orn)-NH2]",7.48,7.37,7.43,29,8.70,100
"CC(=O)N[C@@H](CCCNC(=N)N)C(=O)N[C@H]1CCC(=O)NCCC[C@@H](C(N)=O)NC(=O)[C@H](Cc2c[nH]c3ccccc23)NC(=O)[C@H](CCCNC(=N)N)NC(=O)[C@@H](Cc2ccccc2C(F)(F)F)NC(=O)[C@H](CCC(N)=O)NC1=O [Example 114, Ac-Arg-cyclo(Glu-Gln-D-Phe(2-CF3)-Arg-Trp-Orn)-NH2]",8.10,7.03,9.00,73,–,117
"CC(=O)N[C@@H](CCCNC(=N)N)C(=O)N[C@H]1CCC(=O)NCCC[C@@H](C(N)=O)NC(=O)[C@H](Cc2c[nH]c3ccccc23)NC(=O)[C@H](CCCNC(=N)N)NC(=O)[C@@H](Cc2ccc(F)cc2)NC(=O)[C@H](CCN)NC1=O [Example 11, Ac-Arg-cyclo(Glu-Dab-D-Phe(4-F)-Arg-Trp-Orn)-NH2]",9.60,9.30,10.19,83,10.22,90
"CC(=O)N[C@H](CCCNC(=N)N)C(=O)N[C@H]1CC(=O)NCCCC[C@@H](C(N)=O)NC(=O)[C@H](Cc2c[nH]c3ccccc23)NC(=O)[C@H](CCCNC(=N)N)NC(=O)[C@@H](Cc2cccc(Cl)c2)NC(=O)[C@H](CCC(N)=O)NC1=O [Example 80, Ac-D-Arg-cyclo(Asp-Gln-D-Phe(3-Cl)-Arg-Trp-Lys)-NH2]",8.15,5.76,8.22,13,9.19,86
"CC(=O)N[C@H](CCCNC(=N)N)C(=O)N[C@H]1CCCNC(=O)CC[C@@H](C(N)=O)NC(=O)[C@H](Cc2c[nH]c3ccccc23)NC(=O)[C@H](CCCNC(=N)N)NC(=O)[C@@H](Cc2cccc(Cl)c2)NC(=O)[C@H](Cc2c[nH]cn2)NC1=O [Example 51, Ac-D-Arg-cyclo(Orn-His-D-Phe(3-Cl)-Arg-Trp-Glu)-NH2]",9.22,8.52,9.19,22,9.40,95
"CC(=O)N[C@@H](CCCNC(=N)N)C(=O)N[C@H]1CCC(=O)NCCC[C@@H](C(N)=O)NC(=O)[C@H](Cc2c[nH]c3ccccc23)NC(=O)[C@H](CCCNC(=N)N)NC(=O)[C@@H](Cc2ccc(C#N)cc2)NC(=O)[C@H](CO)NC1=O [Example 45, Ac-Arg-cyclo(Glu-Ser-D-Phe(4-CN)-Arg-Trp-Orn)-NH2]",8.00,5.00,–,12,9.35,87
"CC(=O)N[C@@H](CCCNC(=N)N)C(=O)N[C@H]1CCC(=O)NCCC[C@@H](C(=O)O)NC(=O)[C@H](Cc2c[nH]c3ccccc23)NC(=O)[C@H](CCCNC(=N)N)NC(=O)[C@@H](Cc2ccccc2Cl)NC(=O)[C@H](CCCN)NC1=O [Example 49, Ac-Arg-cyclo(Glu-Orn-D-Phe(2-Cl)-Arg-Trp-Orn)-OH]",8.10,8.10,8.70,74,9.63,93
"CC(=O)N[C@@H](CCCNC(=N)N)C(=O)N[C@H]1CCC(=O)NCCC[C@@H](C(N)=O)NC(=O)[C@H](Cc2c[nH]c3ccccc23)NC(=O)[C@H](CCCNC(=N)N)NC(=O)[C@@H](Cc2ccc(F)cc2)NC(=O)[C@H](CO)NC1=O [Example 65, Ac-Arg-cyclo(Glu-Ser-D-Phe(4-F)-Arg-Trp-Orn)-NH2]",8.30,7.37,9.00,58,10.07,93
"CC(=O)N[C@H](CCCNC(=N)N)C(=O)N[C@H]1CCCNC(=O)CC[C@@H](C(N)=O)NC(=O)[C@H](Cc2c[nH]c3ccccc23)NC(=O)[C@H](CCCNC(=N)N)NC(=O)[C@@H](Cc2ccc(C#N)cc2)NC(=O)[C@H](Cc2c[nH]cn2)NC1=O [Example 52, Ac-D-Arg-cyclo(Orn-His-D-Phe(4-CN)-Arg-Trp-Glu)-NH2]",9.22,8.22,9.49,31,9.70,99
"CC(=O)N[C@@H](CCCNC(=N)N)C(=O)N[C@H]1CCC(=O)NCCC[C@@H](C(N)=O)NC(=O)[C@H](Cc2c[nH]c3ccccc23)NC(=O)[C@H](CCCNC(=N)N)NC(=O)[C@@H](Cc2ccccc2Cl)NC(=O)[C@@H]2C[C@@H](O)CN2C1=O [Example 33, Ac-Arg-cyclo(Glu-Hyp-D-Phe(2-Cl)-Arg-Trp-Orn)-NH2]",9.00,6.84,9.00,41,9.82,98
"CC(=O)N[C@@H](CCCNC(=N)N)C(=O)N[C@H]1CCC(=O)NCCC[C@@H](C(N)=O)NC(=O)[C@H](Cc2c[nH]c3ccccc23)NC(=O)[C@H](CCCNC(=N)N)NC(=O)[C@@H](Cc2ccc(F)cc2)NC(=O)[C@H](CC(N)=O)NC1=O [Example 69, Ac-Arg-cyclo(Glu-Asn-D-Phe(4-F)-Arg-Trp-Orn)-NH2]",8.52,6.82,9.60,76,10.02,92
"CC(=O)N[C@@H](CCCNC(=N)N)C(=O)N[C@H]1CCC(=O)NCCC[C@@H](C(N)=O)NC(=O)[C@H](Cc2c[nH]c3ccccc23)NC(=O)[C@H](CCCNC(=N)N)NC(=O)[C@@H](Cc2ccccc2C)NC(=O)[C@H](CCC(N)=O)NC1=O [Example 110, Ac-Arg-cyclo(Glu-Gln-D-Phe(2-Me)-Arg-Trp-Orn)-NH2]",8.30,6.98,9.22,84,10.22,105
"CC(=O)N[C@@H](CCCNC(=N)N)C(=O)N[C@H]1CCC(=O)NCCC[C@@H](C(N)=O)NC(=O)[C@H](Cc2c[nH]c3ccccc23)NC(=O)[C@H](CCCNC(=N)N)NC(=O)[C@@H](Cc2ccc(Cl)cc2)NC(=O)[C@H](CCN)NC1=O [Example 3, Ac-Arg-cyclo(Glu-Dab-D-Phe(4-Cl)-Arg-Trp-Orn)-NH2]",10.10,9.52,10.15,28,9.80,100
